Here are results for 72 compounds from PubChem BioAssay AID1996.

Converted amounts (≈) assume the structure as drawn.

The conditions of the data set: buffer; pH 7.4; 200.0 µM.
The compound `O=C(COC(=O)c1cnccn1)c1ccc([N+](=O)[O-])cc1` displayed a kinetic solubility greater than 43.1 µg/mL.
Next, `C=CCn1c(Oc2cccc(C)c2)nc2c1c(=O)n(C)c(=O)n2C`: greater than 49 µg/mL; `COc1ccc(OC(C)C(=O)N(C)Cc2nc(-c3ccccc3)no2)cc1` (configuration not stated): 41 µg/mL (≈ 112 µM); `N#CC1(P(=O)(c2ccccc2)c2ccccc2)CCCC1`: greater than 44.3 µg/mL.
Regarding `CCSC1=NCCN1C(=O)Cc1ccc(-c2ccccc2)cc1`, the solubility (kinetic) was 3.3 µg/mL (≈ 10.2 µM).
On to `O=C1C2CCCCN2C(=O)N1CCCN1CCN(c2ccc(F)cc2)CC1` (configuration not stated), for which the solubility (kinetic) was found to be 48.1 µg/mL (≈ 128 µM).
`Clc1ccc(Cl)c(OCCCCN2CCCCC2)c1` yielded a kinetic solubility of 29.5 µg/mL (≈ 97.6 µM).
On to `COC(=O)c1c(NC(=O)C(Cl)Cl)sc2c1C(C(=O)OC)CC2` (configuration not stated), for which the solubility (kinetic) was found to be 8.6 µg/mL (≈ 23.5 µM).
`O=[N+]([O-])C(=C1NCCN1)C(Cl)=C(Cl)Cl` gave a solubility (kinetic) greater than 38.8 µg/mL.
On to `Cc1ccc(Cl)cc1NC(=S)N1CCCCCC1`, for which the solubility (kinetic) amounted to 37.8 µg/mL (≈ 134 µM).
Regarding `CC(=O)Nc1nc(-c2cc([N+](=O)[O-])cs2)cs1`, the kinetic solubility amounted to 0.7 µg/mL (≈ 2.6 µM).
Consider `CS(=O)(=O)N(CC(=O)NC1CCCC1)C1CCCCC1`, for which the solubility (kinetic) was greater than 45.4 µg/mL.
As for `COC(=O)c1sccc1NC(=O)Nc1ccc(C)cc1C`, the solubility (kinetic) was 6.6 µg/mL (≈ 21.7 µM).
`Cc1ccc2c(c1)c(C1=c3ccccc3=NC1=O)c(O)n2C` came in with a solubility (kinetic) of 1.1 µg/mL (≈ 3.79 µM).
`Cc1ccc(S(=O)(=O)n2cnc3ccccc32)cc1[N+](=O)[O-]` came in with a solubility (kinetic) greater than 47.6 µg/mL.
Consider `O=C(O)CCN1C(=O)c2ccc(NC(=O)CCc3ccccc3)cc2C1=O`, for which the kinetic solubility was greater than 55 µg/mL.
`CN(C)c1c(F)cc(C(=O)NCc2ccccc2)cc1F` showed a solubility (kinetic) of 36 µg/mL (≈ 124 µM).
For `S=C(Nc1ccc(Cl)c(Cl)c1)N1CCN(c2ccccn2)CC1`, the kinetic solubility turned out to be 0.9 µg/mL (≈ 2.45 µM).
In turn, `CSc1ccc(Cl)c(C(=O)NCCCn2ccnc2)c1` yielded a kinetic solubility greater than 46.5 µg/mL.
The compound `NC(=O)C1CCN(CC(=O)Nc2ccccc2N2CCOCC2)CC1` yielded a kinetic solubility greater than 52 µg/mL.
For `Cc1ccc(C)c(NC(=O)C2CCCN2C(=O)NC2CCCCC2)c1` (configuration not stated), the kinetic solubility worked out at 29 µg/mL (≈ 84.4 µM).
`CCN(CC(=O)NCc1cccs1)C(=O)c1ccc(C)o1` came in with a solubility (kinetic) greater than 46 µg/mL.
As to `CC(=O)c1ccc(NC(=O)C(C)NCc2ccc(Cl)cc2)cc1` (configuration not stated), the kinetic solubility was found to be 42.9 µg/mL (≈ 130 µM).
Compound `N#Cc1ccc2c(c1)NC(=O)C1CCCN21` (configuration not stated) registered a solubility (kinetic) of 27.8 µg/mL (≈ 130 µM).
As to `CCOc1ccc(C(=O)CCC(=O)Nc2ccc(C)cn2)cc1`, the kinetic solubility turned out to be 5.6 µg/mL (≈ 17.9 µM).
Next, `O=S(=O)(NC1CCCCC1)c1cccs1`: 28.7 µg/mL (≈ 117 µM).
Compound `CCN(C(=S)NCc1ccccc1)c1cccc2ccccc12` had a solubility (kinetic) of 2.7 µg/mL (≈ 8.43 µM).
In the case of `Cc1ccc2c(CC(=O)NNC(=O)c3ccncc3)coc2c1` it was greater than 46.4 µg/mL; in that of `Cc1c(C)c2ccc(OCC(=O)N3CCOCC3)c(C)c2oc1=O`, greater than 49.7 µg/mL; in that of `COc1ccc(CCC(=O)NCC23CC4CC(CC(C4)C2)C3)cc1`, 30.7 µg/mL (≈ 93.7 µM).
`Cc1cc(C(=O)Nc2ccc(Cl)cc2)c(C)n1Cc1cccs1` gave a kinetic solubility of 2.7 µg/mL (≈ 7.83 µM).
In the case of `C(=Nc1cccc2c(N=Cc3ccco3)cccc12)c1ccco1` it was 46.7 µg/mL (≈ 149 µM); in that of `COc1ccc(C(=O)O)cc1S(=O)(=O)Nc1ccc(C)cc1`, greater than 48.2 µg/mL.
Compound `Cc1ccc(S(=O)(=O)C(C#N)=C2N(C)c3ccccc3N2C)cc1` yielded a kinetic solubility of 7.9 µg/mL (≈ 23.3 µM).
Regarding `CC(=O)c1ccc(NC(=O)c2cc(-c3cccs3)on2)cc1`, the kinetic solubility was less than 0.3 µg/mL.
In the case of `CCc1nnc(NC(=O)c2cc(Cl)ccn2)s1` it was greater than 40.3 µg/mL; in that of `CC(=O)NCCc1c[nH]c2ccc(O)cc12`, greater than 32.7 µg/mL; in that of `Cc1cccc(C)c1NC(=O)CN1CCN(C(=O)c2ccc(OCc3cn4ccccc4n3)cc2)CC1`, greater than 74.6 µg/mL.
With `Cc1ccccc1NC(=O)CCCN1C(=O)C2CC=CCC2C1=O` (configuration not stated), the kinetic solubility is greater than 49 µg/mL.
`CCOc1ccc(NC(=S)Nc2cccc3cnccc23)cc1` returned a solubility (kinetic) of 24.6 µg/mL (≈ 76.1 µM).
Consider `O=C(O)C(Cc1c[nH]c2ccccc12)N1C(=O)C2C3c4ccccc4C(c4ccccc43)[C@@H]2C1=O` (some centres not stated), for which the solubility (kinetic) was 37.1 µg/mL (≈ 80.2 µM).
On to `O=S(=O)(c1cc(F)ccc1F)N1CCN(c2ncnc3ccccc23)CC1`, for which the solubility (kinetic) came out at 56.7 µg/mL (≈ 145 µM).
In turn, `COc1ccc(N=Cc2c(O)n(C)c(=O)n(C)c2=O)cc1` yielded a solubility (kinetic) of 11.1 µg/mL (≈ 38.4 µM).
In turn, `O=C(CCCc1nc2ccccc2s1)Nc1ccccc1` gave a solubility (kinetic) of 9.9 µg/mL (≈ 33.4 µM).
`Cc1ccccc1NC(=O)c1cccc(NC(=O)c2ccco2)c1` returned a solubility (kinetic) greater than 48.1 µg/mL.
For the compound `Nc1cc[n+](CC(=O)c2ccccc2)cc1.[Br-]`, the kinetic solubility is greater than 44 µg/mL.
`CN1CCN(c2ccc([N+](=O)[O-])c(Sc3ccccn3)c2)CC1` returned a solubility (kinetic) greater than 49.6 µg/mL.
Next, `NC(=O)Cn1c(=O)n(-c2ccccc2)c(=O)c2oc3ccccc3c21`: 2.6 µg/mL (≈ 7.75 µM); `Cc1cc(C(=O)Nc2sccc2C(N)=O)c(C)o1`: 27.1 µg/mL (≈ 103 µM).
`O=C(c1ccc(F)cc1)C1CCN(Cc2ccc(F)cc2)CC1` returned a kinetic solubility of 36.2 µg/mL (≈ 115 µM).
Turning to `CC1CN(C(=O)COC(=O)/C=C/c2cccc([N+](=O)[O-])c2)CC(C)O1` (configuration not stated), the solubility (kinetic) amounted to 34.2 µg/mL (≈ 98.2 µM).
Compound `O=C1CN(C(=O)COC(=O)Cc2ccccc2)c2ccccc2N1` showed a kinetic solubility greater than 48.7 µg/mL.
Next, `CCCC(=O)NC(c1ccc(C)cc1)c1ccc2cccnc2c1O` (configuration not stated): 1.2 µg/mL (≈ 3.59 µM); `Cc1ccc(-c2ccc(S(=O)(=O)Nc3cccnc3)cc2)cc1`: 0.5 µg/mL (≈ 1.54 µM); `CC1(c2ccccc2)NC(=O)N(CC(=O)N2CCN(S(=O)(=O)c3c(F)cccc3F)CC2)C1=O` (configuration not stated): 25 µg/mL (≈ 50.8 µM).
For the compound `N#Cc1ccc(OCC(O)CS(=O)(=O)c2ccc(F)cc2)cc1` (configuration not stated), the solubility (kinetic) is greater than 50.3 µg/mL.
`CC(C)(C)c1nnc(NS(=O)(=O)c2ccc([N+](=O)[O-])cc2)s1` showed a kinetic solubility greater than 51.4 µg/mL.
Next, `CCN(CC)c1ccc(C=Nc2ccc(C)cc2C)c(O)c1`: 6.4 µg/mL (≈ 21.6 µM); `CNC(=O)CNC(=O)Nc1ccc(C)cc1`: greater than 33.2 µg/mL.
`COc1cc(/C=C(/C#N)C(=O)NCCCc2ccccc2)ccc1OCC(=O)O` returned a kinetic solubility of 37.9 µg/mL (≈ 96.1 µM).
For the compound `COCC(=O)Nc1ccc(N2CCOCC2)c(S(=O)(=O)Nc2ccccc2OC)c1`, the solubility (kinetic) was greater than 65.3 µg/mL.
In the case of `CN1CCN(C2CCN(c3cccc(Cl)c3)CC2)CC1CCO` (configuration not stated) it was 36.8 µg/mL (≈ 109 µM); in that of `COc1ccc(-c2cc(C(F)(F)F)nc(N)n2)cc1`, 1.4 µg/mL (≈ 5.2 µM).
In the case of `CCC(=O)c1ccc2c(c1)N(CCCN(C)C)c1ccccc1S2.Cl` it was greater than 56.5 µg/mL; in that of `CC(NC(=O)c1ccc(C#N)cc1)C1CC2CCC1C2` (configuration not stated), greater than 40.3 µg/mL.
The compound `Cc1ccc(NC(=O)Cc2ccc(-c3ccccc3)cc2)nc1` yielded a solubility (kinetic) of 5.7 µg/mL (≈ 18.9 µM).
With `CC(=O)c1sc(NC(=O)c2ccc(F)cc2)nc1-c1ccccc1`, the kinetic solubility was less than 0.4 µg/mL.
The compound `COCc1cc(C)[nH]c(=O)c1C(=O)NC12CC3CC(CC(C3)C1)C2` showed a kinetic solubility of 9.6 µg/mL (≈ 29.1 µM).
The compound `Cc1ccc(OCC(=O)Nc2ccc(Cl)cc2)c([N+](=O)[O-])n1` had a kinetic solubility of 8.7 µg/mL (≈ 27 µM).
As to `CC1CCCC(NC(=O)c2ccc3c(c2)OCCO3)C1C` (configuration not stated), the solubility (kinetic) is greater than 43.4 µg/mL.
Next, `CCOc1ccc(S(=O)(=O)Nc2ccc(OC)nc2)cc1`: greater than 46.3 µg/mL.
Turning to `COC(=O)c1ccc(NC(=O)C2C3C=CC(C3)C2C(=O)O)cc1` (configuration not stated), the kinetic solubility was greater than 47.3 µg/mL.

Usually kinetic solubility stands for the concentration staying in solution when a stock, usually in DMSO, is diluted into the medium.
